Each structure is given as a SMILES string.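 A five-concentration, 48-hour dose response in 96-well plates underlies each endpoint, interpolated linearly between surrounding concentrations. GI50 is the concentration that inhibits growth by half.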 Active and inactive are the calls of the source. Rule as the data show it: active = GI50 up to about 1.1 µM and inactive = higher. Where a SMILES comes first, the peptide text is derived from it. The star is where a group is joined. Cbz = O=C(OCc1ccccc1)*

Test systems include NCI-H23; HL-60; OVCAR-4; OVCAR-8; PC-3; SK-OV-3; SF-539; RXF 393; SW-620; Malme-3M; SNB-75; HOP-92; DU-145; UACC-62; NCI-H226; UACC-257; MDA-MB-435; OVCAR-3; SK-MEL-28; SR.
What all share (assay): NCI tumour cell line growth inhibition, 48 h

Consider `CC(C)CNc1nc(N)nc(O)c1NC=O`, for which the GI50 in the assay with NCI-H23, with HL-60, in the assay on OVCAR-4, with OVCAR-8, with PC-3 and with SK-OV-3 was > 100 µM (inactive) in each case. Further, the GI50 with SF-539, with RXF 393, in the assay with SW-620, in the assay with Malme-3M, with SNB-75 and in the assay with HOP-92 was > 100 µM (inactive) each time. For the same molecule, the GI50 with DU-145, in the assay with UACC-62, in the assay with NCI-H226, with UACC-257, with MDA-MB-435 and in the assay on OVCAR-3 was > 100 µM (inactive) in each case. Also, the GI50 with SK-MEL-28 is > 100 µM (inactive).
Regarding `Cc1[nH]c(-c2ccccc2)c(-c2ccc(Cl)cc2)c1C(=O)ONC(=O)c1ccccc1`, the GI50 with NCI-H23 is 4.02 µM (inactive); in the assay on HL-60, 1.5 µM (inactive); in the assay with OVCAR-4, 2.62 µM (inactive); in the assay with OVCAR-8, 4 µM (inactive); in the assay with PC-3, 4.94 µM (inactive); in the assay on SK-OV-3, 10.5 µM (inactive). In addition, the GI50 with SF-539 is 2.22 µM (inactive); in the assay on RXF 393, 2.12 µM (inactive); with SW-620, 7.26 µM (inactive); in the assay with Malme-3M, 10.2 µM (inactive); in the assay on SNB-75, 3.56 µM (inactive); in the assay with HOP-92, 1.77 µM (inactive). Moreover, the GI50 in the assay on DU-145 was 1.58 µM (inactive); with UACC-62, 10.1 µM (inactive); in the assay with NCI-H226, 3.61 µM (inactive); in the assay on UACC-257, 6.82 µM (inactive); in the assay with MDA-MB-435, 2.47 µM (inactive); in the assay with OVCAR-3 it was 3.2 µM (inactive). For the same molecule, in the assay with SK-MEL-28, the GI50 is 8.38 µM (inactive).
Take `Cc1cc2oc(=O)c(Cl)c(Cl)c2c(C)c1Cl`: the GI50 was 6.28 µM (inactive) in the assay on NCI-H23; 1.91 µM (inactive) in the assay with HL-60; 4.28 µM (inactive) with OVCAR-4; 3.28 µM (inactive) in the assay with OVCAR-8; 11.4 µM (inactive) in the assay with PC-3; 14.4 µM (inactive) in the assay with SK-OV-3. The GI50 was 9.35 µM (inactive) in the assay on SF-539; 2.84 µM (inactive) in the assay with RXF 393; 1.37 µM (inactive) with SW-620; 10.8 µM (inactive) with Malme-3M; 12.4 µM (inactive) in the assay with SNB-75; 1.58 µM (inactive) in the assay on HOP-92. Moreover, the GI50 in the assay on DU-145 was 14.6 µM (inactive); in the assay on UACC-62 it was 6.71 µM (inactive); in the assay on NCI-H226, 17.3 µM (inactive); with UACC-257, 15.1 µM (inactive); with MDA-MB-435 it was 4.25 µM (inactive); with OVCAR-3, 2.58 µM (inactive). Moreover, in the assay with SK-MEL-28, the GI50 was 15.4 µM (inactive).
With `C[C@@H]1OC(=O)C[C@H]2CC(=O)N(CCC3CN(S(=O)(=O)C(F)(F)F)c4ccc(Cc5ccc6c(c5)C(CCN5C[C@H]7[C@@H](CC(=O)O[C@H]7C)CC5=O)CN6S(=O)(=O)C(F)(F)F)cc43)C[C@@H]21` (some centres not stated), the GI50 with NCI-H23 was > 100 µM (inactive); with OVCAR-4 it was > 100 µM (inactive); with OVCAR-8, > 100 µM (inactive); with PC-3, > 100 µM (inactive); with SK-OV-3, > 100 µM (inactive); with SF-539, < 0.01 µM (active). Moreover, the GI50 in the assay on RXF 393, with SW-620, with Malme-3M, in the assay with SNB-75, in the assay with HOP-92 and with DU-145 was > 100 µM (inactive) in each case. Also, the GI50 in the assay on UACC-62, in the assay with NCI-H226, with UACC-257, in the assay with MDA-MB-435, in the assay on OVCAR-3 and with SK-MEL-28 was > 100 µM (inactive) throughout.
With `CSc1nc(Br)nc2c1ncn2C1CC(Oc2ccc(C)cc2)C(COc2ccc(C)cc2)O1` (configuration not stated), the GI50 in the assay on NCI-H23 is 40.8 µM (inactive); in the assay on HL-60 it was > 100 µM (inactive); in the assay with OVCAR-4, 83 µM (inactive); in the assay with OVCAR-8 it was > 100 µM (inactive); with PC-3, > 100 µM (inactive); in the assay on SK-OV-3, > 100 µM (inactive). Besides, the GI50 was > 100 µM (inactive) in the assay with SF-539; > 100 µM (inactive) with SW-620; > 100 µM (inactive) with Malme-3M; 23.3 µM (inactive) in the assay with SNB-75; > 100 µM (inactive) in the assay with HOP-92; > 100 µM (inactive) in the assay with DU-145. Moreover, the GI50 with UACC-62, with NCI-H226, in the assay with UACC-257, in the assay with MDA-MB-435, in the assay with OVCAR-3 and in the assay with SK-MEL-28 was > 100 µM (inactive) throughout.
As for `N#Cc1nc(C(=O)c2ccccc2)oc1N`, the GI50 with HL-60, with OVCAR-4, with OVCAR-8, in the assay on PC-3, in the assay on SK-OV-3 and in the assay with SW-620 was > 100 µM (inactive) each time. Moreover, the GI50 in the assay with SNB-75 is 0.052 µM (active); in the assay with HOP-92, > 100 µM (inactive); in the assay on DU-145, > 100 µM (inactive); with UACC-62, > 100 µM (inactive); in the assay with UACC-257, > 100 µM (inactive); with MDA-MB-435 it was > 100 µM (inactive). The GI50 in the assay on SK-MEL-28 was > 100 µM (inactive).
Consider `NC(=O)c1ccc(NS(=O)(=O)c2ccc(N)cc2)nc1`, for which the GI50 in the assay with NCI-H23, in the assay on HL-60, in the assay on OVCAR-4, with OVCAR-8, in the assay with PC-3 and in the assay with SK-OV-3 was > 100 µM (inactive) each time. Also, the GI50 in the assay with SW-620, in the assay with Malme-3M, in the assay with SNB-75, in the assay on HOP-92, with DU-145 and in the assay with UACC-62 was > 100 µM (inactive) throughout. Besides, the GI50 in the assay on NCI-H226, in the assay with UACC-257, in the assay with MDA-MB-435, in the assay with OVCAR-3 and in the assay on SK-MEL-28 was > 100 µM (inactive) in each case.
Regarding `Cc1cc(NC(=O)NC(=O)c2ccccc2[N+](=O)[O-])ccc1Oc1ncc(Cl)cn1`, the GI50 in the assay on NCI-H23 is 0.222 µM (active); in the assay on HL-60, 0.0327 µM (active); in the assay with OVCAR-4, 14.1 µM (inactive); in the assay on OVCAR-8, 0.303 µM (active); in the assay on PC-3, 0.0336 µM (active); in the assay with SK-OV-3, 0.0575 µM (active). For the same molecule, the GI50 with SF-539 was 0.0883 µM (active); with RXF 393 it was 0.0447 µM (active); in the assay on SW-620, 0.0501 µM (active); in the assay with Malme-3M it was 0.0231 µM (active); in the assay with SNB-75, 0.0456 µM (active); with DU-145, 1.81 µM (inactive). Moreover, the GI50 is 0.0551 µM (active) with UACC-62; 0.232 µM (active) in the assay with NCI-H226; 0.0431 µM (active) in the assay with UACC-257; 0.0115 µM (active) with MDA-MB-435; 0.0361 µM (active) in the assay on OVCAR-3; 2.37 µM (inactive) in the assay on SK-MEL-28.
For the molecule `COC(=O)[C@@H]1CN(C(C)=O)C(=O)N1`, the GI50 in the assay with NCI-H23, in the assay with HL-60, in the assay on OVCAR-4, in the assay with OVCAR-8, in the assay with PC-3 and in the assay on SK-OV-3 was > 100 µM (inactive) in each case. The GI50 with SF-539, in the assay on RXF 393, in the assay on SW-620, in the assay on Malme-3M, in the assay with SNB-75 and with HOP-92 was > 100 µM (inactive) throughout. Moreover, the GI50 with DU-145, in the assay on UACC-62, in the assay on NCI-H226, with UACC-257, in the assay with MDA-MB-435 and with OVCAR-3 was > 100 µM (inactive) each time. In the assay with SK-MEL-28, the GI50 was > 100 µM (inactive).
On to `CC(C)(C)c1cc(/C=C/C(=O)CC(=O)/C=C/c2cc(C(C)(C)C)c(O)c(C(C)(C)C)c2)cc(C(C)(C)C)c1O`, for which the GI50 in the assay on NCI-H23, in the assay with HL-60, in the assay on OVCAR-4, in the assay on OVCAR-8, in the assay with PC-3 and with SK-OV-3 was > 50 µM (inactive) throughout. Moreover, the GI50 in the assay with SF-539, with RXF 393, with SW-620, in the assay on SNB-75, in the assay with DU-145 and in the assay on UACC-62 was > 50 µM (inactive) each time. Also, the GI50 in the assay with NCI-H226, in the assay with UACC-257, in the assay on MDA-MB-435, in the assay with OVCAR-3 and in the assay on SK-MEL-28 was > 50 µM (inactive) throughout.
For the molecule `CCOC(=O)CCC(NC(=O)CNC(=O)CNC(=O)C(CCC(=O)OCC)NC(=O)C(CCC(=O)OCC)NC(=O)C(CCC(=O)OCC)NC(=O)OCc1ccccc1)C(=O)NC(CCC(=O)OCC)C(=O)NC(CCC(=O)OCC)C(=O)OCC` (configuration not stated) (Cbz-E(OEt)E(OEt)E(OEt)GGE(OEt)E(OEt)E(OEt)-OEt; configuration not given here), the GI50 in the assay on NCI-H23, in the assay on OVCAR-4, with OVCAR-8, with PC-3, in the assay on SK-OV-3 and in the assay on RXF 393 was > 75 µM (inactive) throughout. Moreover, the GI50 in the assay with SW-620, with Malme-3M, in the assay with SNB-75, with DU-145, in the assay with UACC-62 and in the assay with UACC-257 was > 75 µM (inactive) in each case. Further, the GI50 in the assay on SR, in the assay on MDA-MB-435 and with SK-MEL-28 was > 75 µM (inactive) in each case.

For the origin of these results see ChEMBL document CHEMBL1201862, “PubChem BioAssay data set” (2004).
